Among the data in PubChem BioAssay AID1745844 (Carcinogenic Potency Database (CPDB), 2022) are TD50 and carcinogen call values, retold here.

The source made the active and inactive calls. No rule for the calls is given here.

This series concerns rodent lifetime carcinogenesis bioassay, tumor incidence TD50. The series is described as follows: chronic cancer bioassays in animals – CPDB, compiled studies (AID 1745844).

In general, TD50 refers to the 50% point of the dose-response relation for the toxic effect studied. Turning to `CN(C)/C=N/c1nnc(/C=C/c2ccc([N+](=O)[O-])o2)o1`, the TD50 was 20.6 mg/kg/day (rat, strain Sprague-Dawley, females, in feed, site: any site (literature study), lesion: several types, types named in the paper, dosed 46 weeks, study length 66 weeks); 336 mg/kg/day (rat, strain Sprague-Dawley, females, in feed, site: duodenum, lesion: adenocarcinoma, dosed 46 weeks, study length 66 weeks); 336 mg/kg/day (rat, strain Sprague-Dawley, females, in feed, site: duodenum, lesion: adenomatous polyp, dosed 46 weeks, study length 66 weeks); 221 mg/kg/day (rat, strain Sprague-Dawley, females, in feed, site: forestomach, lesion: squamous-cell papilloma, dosed 46 weeks, study length 66 weeks); 683 mg/kg/day (rat, strain Sprague-Dawley, females, in feed, site: lung, lesion: alveolar-cell carcinoma, dosed 46 weeks, study length 66 weeks); 20.4 mg/kg/day (rat, strain Sprague-Dawley, females, in feed, site: mammary gland, lesion: adenocarcinoma, dosed 46 weeks, study length 66 weeks). For the same molecule, under “rat, strain Sprague-Dawley, females, in feed, site: mammary gland, lesion: several types, types named in the paper, dosed 46 weeks, study length 66 weeks”, the TD50 was 22.4 mg/kg/day.

For the molecule `O=C(O)c1cc(O)c(O)c(O)c1`, the carcinogen call was “negative (inactive)” (rat, strain F344/DuCrj, males, in feed, site: forestomach, lesion: squamous-cell carcinoma, dosed 60 weeks, study length 60 weeks) and “negative (inactive)” (rat, strain F344/DuCrj, males, in feed, site: forestomach, lesion: squamous-cell papilloma, dosed 60 weeks, study length 60 weeks).

Take `O=NN1CCOCC1`: the TD50 reads like this: (hamster, strain Syrian Golden, females, in drinking water, site: any site (literature study), lesion: several types, types named in the paper, dosed 104 weeks, study length 104 weeks) 1.48 mg/kg/day; (hamster, strain Syrian Golden, females, in drinking water, site: larynx, lesion: several types, types named in the paper, dosed 104 weeks, study length 104 weeks) 15.4 mg/kg/day; (hamster, strain Syrian Golden, females, in drinking water, site: liver, lesion: several types, types named in the paper, dosed 104 weeks, study length 104 weeks) 51.6 mg/kg/day; (hamster, strain Syrian Golden, females, in drinking water, site: respiratory system, lesion: several types, types named in the paper, dosed 104 weeks, study length 104 weeks) 1.35 mg/kg/day; (hamster, strain Syrian Golden, females, in drinking water, site: trachea, lesion: mixed-cell mucoepidermoid papilloma, dosed 104 weeks, study length 104 weeks) 11.3 mg/kg/day; (hamster, strain Syrian Golden, males, in drinking water, site: any site (literature study), lesion: several types, types named in the paper, dosed 104 weeks, study length 104 weeks) 5.56 mg/kg/day. The TD50 (hamster, strain Syrian Golden, males, in drinking water, site: larynx, lesion: several types, types named in the paper, dosed 104 weeks, study length 104 weeks) is 11.5 mg/kg/day; the TD50 (hamster, strain Syrian Golden, males, in drinking water, site: liver, lesion: several types, types named in the paper, dosed 104 weeks, study length 104 weeks) is 9.14 mg/kg/day; the TD50 (hamster, strain Syrian Golden, males, in drinking water, site: respiratory system, lesion: several types, types named in the paper, dosed 104 weeks, study length 104 weeks) was 5.98 mg/kg/day; the TD50 (hamster, strain Syrian Golden, males, in drinking water, site: trachea, lesion: mixed-cell mucoepidermoid papilloma, dosed 104 weeks, study length 104 weeks) was 7.98 mg/kg/day; the TD50 (rat, strain Fischer 344, females, in drinking water, site: adrenal medulla, lesion: pheochromocytoma, dosed 45 weeks, study length 126 weeks) was determined as 0.325 mg/kg/day; the TD50 (rat, strain Fischer 344, females, in drinking water, site: adrenal medulla, lesion: pheochromocytoma, dosed 100 weeks, study length 126 weeks) came to 1.07 mg/kg/day. The TD50 (rat, strain Fischer 344, females, in drinking water, site: esophagus, lesion: several types, types named in the paper, dosed 45 weeks, study length 126 weeks) was found to be 1.97 mg/kg/day; the TD50 (rat, strain Fischer 344, females, in drinking water, site: esophagus, lesion: squamous-cell papilloma, dosed 45 weeks, study length 126 weeks) was 2.53 mg/kg/day; the TD50 (rat, strain Fischer 344, females, in drinking water, site: liver, lesion: hemangiosarcoma, dosed 45 weeks, study length 126 weeks) was 0.666 mg/kg/day; the TD50 (rat, strain Fischer 344, females, in drinking water, site: liver, lesion: hemangiosarcoma, dosed 50 weeks, study length 73 weeks) is 0.348 mg/kg/day; the TD50 (rat, strain Fischer 344, females, in drinking water, site: liver, lesion: hemangiosarcoma, dosed 100 weeks, study length 126 weeks) is 0.63 mg/kg/day; the TD50 (rat, strain Fischer 344, females, in drinking water, site: liver, lesion: hepatocellular carcinoma, dosed 45 weeks, study length 126 weeks) is 0.564 mg/kg/day. For the same molecule, the TD50 by setting is: (rat, strain Fischer 344, females, in drinking water, site: liver, lesion: hepatocellular carcinoma, dosed 50 weeks, study length 73 weeks) 0.0805 mg/kg/day; (rat, strain Fischer 344, females, in drinking water, site: liver, lesion: hepatocellular carcinoma, dosed 100 weeks, study length 126 weeks) 0.431 mg/kg/day; (rat, strain Fischer 344, females, in drinking water, site: liver, lesion: neoplastic nodule, dosed 45 weeks, study length 126 weeks) 1.28 mg/kg/day; (rat, strain Fischer 344, females, in drinking water, site: liver, lesion: neoplastic nodule, dosed 100 weeks, study length 126 weeks) 0.239 mg/kg/day; (rat, strain Fischer 344, females, in drinking water, site: liver, lesion: several types, types named in the paper, dosed 45 weeks, study length 126 weeks) 0.14 mg/kg/day; (rat, strain Fischer 344, females, in drinking water, site: liver, lesion: several types, types named in the paper, dosed 100 weeks, study length 126 weeks) 0.127 mg/kg/day. In addition, the TD50 runs as follows: (rat, strain Fischer 344, females, in drinking water, site: thyroid gland, lesion: c-cell carcinoma, dosed 45 weeks, study length 126 weeks) 0.363 mg/kg/day; (rat, strain Fischer 344, females, in drinking water, site: thyroid gland, lesion: follicular-cell adenoma, dosed 100 weeks, study length 126 weeks) 0.581 mg/kg/day; (rat, strain Fischer 344, females, in drinking water, site: tongue, lesion: several types, types named in the paper, dosed 45 weeks, study length 126 weeks) 6.54 mg/kg/day; (rat, strain Fischer 344, females, in drinking water, site: tongue, lesion: squamous-cell papilloma, dosed 45 weeks, study length 126 weeks) 50.2 mg/kg/day; (rat, strain Fischer 344, females, in drinking water, site: tongue, lesion: squamous-cell papilloma, dosed 100 weeks, study length 126 weeks) 3.49 mg/kg/day. Where the note is “rat, strain Fischer 344, females, in drinking water, site: liver, lesion: several types, types named in the paper, dosed 50 weeks, study length 73 weeks”, the carcinogen call was “positive”.

Turning to `O=C(O)c1ccc(N=Nc2ccc(O)c(C(=O)O)c2)cc1`, the TD50 by setting is: (mouse, strain NMRI, females, in feed, site: all sites, lesion: lymphoma, dosed 107 weeks, study length 107 weeks) 1200 mg/kg/day (inactive); (mouse, strain NMRI, females, in feed, site: lung, lesion: alveolar/bronchiolar adenoma, dosed 107 weeks, study length 107 weeks) 2650 mg/kg/day (inactive); (mouse, strain NMRI, males, in feed, site: liver, lesion: hepatocellular adenoma, dosed 120 weeks, study length 120 weeks) 35200 mg/kg/day (inactive); (mouse, strain NMRI, males, in feed, site: liver, lesion: hepatocellular carcinoma, dosed 120 weeks, study length 120 weeks) 19500 mg/kg/day (inactive); (mouse, strain NMRI, males, in feed, site: lung, lesion: alveolar/bronchiolar adenocarcinoma, dosed 120 weeks, study length 120 weeks) 14300 mg/kg/day (inactive); (mouse, strain NMRI, males, in feed, site: lung, lesion: alveolar/bronchiolar adenoma, dosed 120 weeks, study length 120 weeks) 13000 mg/kg/day (inactive). The molecule further registered a TD50 (rat, strain Sprague-Dawley, males, in feed, site: thyroid gland, lesion: follicular-cell adenoma, dosed 118 weeks, study length 118 weeks) of 15300 mg/kg/day. The carcinogen call reads like this: (mouse, strain NMRI, females, in feed, site: liver, lesion: hepatocellular adenoma, dosed 107 weeks, study length 107 weeks) “negative (inactive)”; (mouse, strain NMRI, females, in feed, site: lung, lesion: alveolar/bronchiolar adenocarcinoma, dosed 107 weeks, study length 107 weeks) “negative (inactive)”; (rat, strain Sprague-Dawley, females, in feed, site: liver, lesion: hepatocellular tumor, dosed 119 weeks, study length 119 weeks) “negative (inactive)”; (rat, strain Sprague-Dawley, males, in feed, site: liver, lesion: hepatocellular adenoma, dosed 118 weeks, study length 118 weeks) “negative (inactive)”; (rat, strain Sprague-Dawley, males, in feed, site: liver, lesion: hepatocellular carcinoma, dosed 118 weeks, study length 118 weeks) “negative (inactive)”.

As to `Oc1cccc(O)c1`, the TD50 runs as follows: (mouse, strain B6C3F1, females, by gavage, site: any site (literature study), lesion: several types, types named in the paper, dosed 104 weeks, study length 104 weeks) 1880 mg/kg/day (inactive); (mouse, strain B6C3F1, females, by gavage, site: liver, lesion: hepatocellular adenoma + hepatocellular carcinoma + neoplastic nodule, dosed 104 weeks, study length 104 weeks) 1560 mg/kg/day; (mouse, strain B6C3F1, females, by gavage, site: lung, lesion: alveolar/bronchiolar adenoma + alveolar/bronchiolar carcinoma, dosed 104 weeks, study length 104 weeks) 1350 mg/kg/day; (mouse, strain B6C3F1, males, by gavage, site: lung, lesion: alveolar/bronchiolar adenoma + alveolar/bronchiolar carcinoma, dosed 104 weeks, study length 104 weeks) 6800 mg/kg/day; (rat, strain Fischer 344, females, by gavage, site: any site (literature study), lesion: several types, types named in the paper, dosed 103 weeks, study length 104 weeks) 219 mg/kg/day (inactive); (rat, strain Fischer 344, males, by gavage, site: any site (literature study), lesion: several types, types named in the paper, dosed 103 weeks, study length 104 weeks) 213 mg/kg/day. The TD50 (rat, strain Fischer 344, males, by gavage, site: testis, lesion: interstitial-cell adenoma, dosed 103 weeks, study length 104 weeks) was 84 mg/kg/day (inactive). Moreover, the carcinogen call (mouse, strain B6C3F1, males, by gavage, site: any site (literature study), lesion: several types, types named in the paper, dosed 104 weeks, study length 104 weeks) is “negative (inactive)”.

In the case of `O=S1(=O)CCCO1`, the TD50 is, setting by setting: (rat, strain Charles River CD (Sprague-Dawley), females, by gavage, site: all sites, lesion: granulocytic leukemia, dosed 46 weeks, study length 60 weeks) 18.6 mg/kg/day; (rat, strain Charles River CD (Sprague-Dawley), females, by gavage, site: cerebellum, lesion: malignant glioma, dosed 46 weeks, study length 60 weeks) 7.2 mg/kg/day; (rat, strain Charles River CD (Sprague-Dawley), females, by gavage, site: cerebrum, lesion: malignant glioma, dosed 46 weeks, study length 60 weeks) 4.06 mg/kg/day; (rat, strain Charles River CD (Sprague-Dawley), females, by gavage, site: mammary gland, lesion: adenocarcinoma, dosed 46 weeks, study length 60 weeks) 4.13 mg/kg/day; (rat, strain Charles River CD (Sprague-Dawley), females, by gavage, site: small intestine, lesion: adenocarcinoma, dosed 46 weeks, study length 60 weeks) 31.7 mg/kg/day; (rat, strain Charles River CD (Sprague-Dawley), males, by gavage, site: all sites, lesion: granulocytic leukemia, dosed 46 weeks, study length 60 weeks) 23.5 mg/kg/day. For the same molecule, the TD50 is, setting by setting: (rat, strain Charles River CD (Sprague-Dawley), males, by gavage, site: cerebellum, lesion: malignant glioma, dosed 46 weeks, study length 60 weeks) 4.75 mg/kg/day; (rat, strain Charles River CD (Sprague-Dawley), males, by gavage, site: cerebrum, lesion: malignant glioma, dosed 46 weeks, study length 60 weeks) 3.64 mg/kg/day; (rat, strain Charles River CD (Sprague-Dawley), males, by gavage, site: small intestine, lesion: adenocarcinoma, dosed 46 weeks, study length 60 weeks) 15.4 mg/kg/day.

For the molecule `CC(=O)C(N=Nc1ccc(Cl)cc1Cl)C(=O)Nc1ccc(-c2ccc(NC(=O)C(N=Nc3ccc(Cl)cc3Cl)C(C)=O)c(C)c2)cc1C` (stereo not given), the TD50 by setting is: (mouse, strain NMRI, both sexes, in feed, site: any site (literature study), lesion: one or several types, types not named, dosed 104 weeks, study length 104 weeks) 11700 mg/kg/day (inactive); (rat, strain Sprague-Dawley, both sexes, in feed, site: any site (literature study), lesion: one or several types, types not named, dosed 104 weeks, study length 104 weeks) 13700 mg/kg/day (inactive).
